Laboratory results as given in US12116387B2, “Antimicrobial peptides” (priority 2021, dated 2024).
Read-outs that look alike come from different tables or passages of the source. Ends that are not written are not given here.

What was measured:
P. aeruginosa = experiment: Skin scarification (abscess) infection mouse model; assay type: in vivo; details: single dose 16 μmol L^−1
Description: Despite these therapeutic properties, mast-MO retained some cytotoxicity towards human cells at concentrations immediately above its antimicrobial and immunomodulatory activities hindering its use as a potential therapy in humans. FIG. 6B pertains to design of mast-MO derivatives through permutation of its FLPII motif. FIG. 6C depicts cytotoxic activity of mast-MO and its permutation variants against human embryonic kidney cells (i.e., HEK293). FIG. 6D provides a schematic of the experimental design. Briefly, the back of mice was shaved, and an abrasion was generated to damage the stratum corneum and the upper layer of the epidermis. Subsequently, an aliquot of […] containing 5×10^7 CFU/20 μL of P. aeruginosa in PBS was inoculated over each defined area. One day post-infection, peptides (16 μmol L^−1) were administered to the infected area. […] Six animals per group were euthanized and the area of scarified skin was excised two days post-infection, homogenized using a bead beater for 20 min (25 Hz), and serially diluted for CFU quantification (statistical significance was determined using two-way ANOVA followed by Dunnett's test, ***p<0.001). […]
Skin abscess infection mouse model. […] Animals were euthanized and the area of scarified skin was excised two- and four-days post-infection, homogenized using a bead beater for 20 minutes (25 Hz), and serially diluted for CFU quantification. […]

[1] = test system: human red blood cells (hRBCs); experiment: Cytotoxicity / hemolysis against human red blood cells; assay type: cell-based
[2] = test system: murine fibroblasts (L929); experiment: Cytotoxicity against L929 fibroblasts (MTT); assay type: cell-based
Method: Mammalian cells toxicity assays. L929 mice fibroblasts (Rio de Janeiro Cell Bank) and SPCs were seeded in 96-well microtiter plates in a concentration of 1.0×10^5 cells per well, in DMEM medium, supplemented with different concentrations of tested peptides (1-600 μM). After 48 h incubation, a thiazolyl blue tetrazolium bromide (MTT) protocol was performed. Briefly, 60% of the medium was removed, and 10 μL of MTT (5 mg mL^−1) (Sigma, USA) solution was added to each well and the plate was incubated for 4 h, in 5% CO2, at 37° C. The blue formazan product generated was dissolved by the addition of 100 μL of 100% DMSO (Mallinckrodt, Germany) per well. Plates were then gently swirled for 5 min, at room temperature, to dissolve the precipitate. The absorbance was monitored at 575 nm using a microplate spectrophotometer (Bio-Tek, USA). Cytotoxicity was determined as a percentage of the maximum value after subtracting the background. The results were expressed as the percentage of each sample compared to the negative control (PBS buffer, pH 7.4) and cell culture was incubated in a lysis buffer (10 mM Tris, pH 7.4, 1 mM ethylenediamine tetraacetic acid (EDTA), and 0.1% Triton X-100).

[3] = test system: murine macrophages monocytes (RAW 264.7); experiment: Cytotoxicity against RAW 264.7 cells (MTT); assay type: cell-based
mice = test system: mice
Method: Therefore, the anti-infective activity of mast-MO was then tested in pre-clinical mouse models. First, the toxicity of a single dose of either mast-L or mast-MO administered peritoneally to mice was assessed in order to determine the range of concentrations to be used in subsequent animal experiments. The hemolytic activity of mast-MO (up to 200 μmoL^−1) against murine red blood cells (Table 6) was also tested prior to conducting animal experiments.
Systemic bacterial infection mouse model. Acute toxicity assay was performed based on the work of Navon-Venezia and co-workers (46). The experiment was performed by intraperitoneal (i.p.) injection of the tested peptides to groups of 10 C57BL/6 mice. Each mouse was injected with a 0.5 mL solution of freshly prepared of peptides in PBS. The doses of peptide administered per mouse were 0, 10, 30, 50, 70 and 90 mg Kg^−1 of body weight. Animals were directly inspected for adverse effects for 6 h, and mortality was monitored for 7 days thereafter. Differences between groups were analysed using the Fisher exact test (differences were considered to be statistically significant when the P value was <0.05). Briefly, E. coli ATCC8739 and E. coli 1812446 or S. aureus ATCC 29213 and S. aureus (MRSA) ATCC33591 were plated on tryptic soy agar plus 5% sheep blood (blood agar, Himedia, India) from a frozen stock. Following 24 h of incubation of the agar plate, three isolated colonies were transferred to 1 mL of BHI. The broth culture was incubated overnight (12-16 h) at 37° C. with shaking. […] Mice were challenged with either strain of E. coli ATCC8739 and E. coli 1812446 or S. aureus ATC29213 and S. aureus (MRSA) ATCC33591 in a final volume of 200 μL of PBS by intraperitoneal injection (i.p.). The day of challenge was designated as day 1 of the experiment. Three hours after bacterial injection, mice (n=5) were treated, intraperitoneally, with different concentrations of peptides (1, 5 or 10 mg Kg^−1), LL-37, gentamicin and 10 mg Kg^−1 of imipenem or PBS for 8 days. For bacterial load evaluation, 5 mice per group were used. Animals were humanely killed 24 h after bacterial administration. To detect bacterial colonization, the peritoneal lavage samples were collected under sterile conditions. The peritoneal lavage was obtained by washing the cavity with 5 mL of sterile PBS. Samples were diluted serially, and 100 μL of each dilution was spread in duplicate on appropriate agar plates for the count of developed colonies. Cytokine levels (i.e., IFN-γ, IL-6, IL−10, IL−12p70 and TNF-α) in the peritoneal lavage of the mice both in the absence and presence of peptide treatment were quantified by ELISA (Peprotech, USA) according to the manufacturer's instructions.

[4] = test system: human embryonic kidney (HEK293) cells; experiment: Cytotoxicity against HEK293 cells; assay type: cell-based
Description: The FLPII motif was chosen for the permutations to preserve the natural antimicrobial activity of mast-L and also conserve the hydrophobic content inserted in the N-terminal extremity for the initial design of mast-MO. Next, we assessed the antimicrobial (FIG. 10) and cytotoxic activities of the mast-MO analog library against HEK293 cells (FIG. 6C). These specific cell line was chosen as it derives from human embryonic kidney cells and potential antimicrobial (i.e., AMPs, antibiotics) toxicity affects the kidneys, which are responsible for clearing such molecules (34). Also measured was whether the peptides aggregated at the highest concentration tested (128 μmoL^−1) (Table 7) since the motif inserted is composed of residues with aliphatic or aromatic side chain groups that may be prone to aggregation when in proximity within the primary peptide sequence, thus altering biological activity. Minor changes to the first five residues inserted in the mast-MO primary sequence led to a pronounced decrease in cytotoxic activity (2.5 to 5-fold) compared to mast-MO (FIG. 6C).

[5] = test system: E. coli and S. aureus strains; experiment: Systemic infection experiments, summary over all strains; details: 10 mg Kg^−1
[6] = test system: mouse red blood cells (mRBCs); experiment: Hemolysis of mouse red blood cells; assay type: cell-based; details: 0.5 to 200 μmol L^−1
Method: Hemolysis assays. Hemolytic activity of peptides was determined by using fresh mouse red blood cells (mRBCs), by measuring the peptide-induced changes of the optical density (OD) at 540 nm (Victor X, Perkin-Elmer, Germany), 100% lysis was determined by analysing the supernatant of erythrocytes that had been incubated with Triton X-100 (1%).

[7] = Dose 90 mg Kg^−1, five mice per group
[8] = RAW 264.7, 24 h, 0.5 to 200 μmol L^−1, MTT (Table 6)

`CC[C@H](C)[C@H](N)C(=O)N[C@@H](Cc1ccccc1)C(=O)N[C@@H](CC(C)C)C(=O)N1CCC[C@H]1C(=O)N[C@H](C(=O)N[C@H](C(=O)N[C@@H](CC(N)=O)C(=O)N[C@@H](CC(C)C)C(=O)N[C@@H](CCCCN)C(=O)N[C@@H](C)C(=O)N[C@@H](CC(C)C)C(=O)N[C@@H](C)C(=O)N[C@@H](C)C(=O)N[C@@H](CC(C)C)C(=O)N[C@@H](C)C(=O)N[C@@H](CCCCN)C(=O)N[C@@H](CCCCN)C(=O)N[C@H](C(=O)N[C@@H](CC(C)C)C(N)=O)[C@@H](C)CC)[C@@H](C)CC)[C@@H](C)CC` [Analog 15, IFLPIINLKALAALAKKIL] was tested, and the “Side effects or adverse toxicity” value (P. aeruginosa) was “did not cause any side effects or adverse toxicity”.
`CC[C@H](C)[C@H](NC(=O)[C@H](CCCCN)NC(=O)[C@H](CCCCN)NC(=O)[C@H](C)NC(=O)[C@H](CC(C)C)NC(=O)[C@H](C)NC(=O)[C@H](C)NC(=O)[C@H](CC(C)C)NC(=O)[C@H](C)NC(=O)[C@H](CCCCN)NC(=O)[C@H](CC(C)C)NC(=O)[C@H](CC(N)=O)NC(=O)[C@@H](NC(=O)[C@H](CC(C)C)NC(=O)[C@@H](NC(=O)[C@@H](NC(=O)[C@@H]1CCCN1C(=O)[C@@H](N)Cc1ccccc1)[C@@H](C)CC)[C@@H](C)CC)[C@@H](C)CC)C(=O)N[C@@H](CC(C)C)C(N)=O` [Analog 49, FPIILINLKALAALAKKIL] was tested, and the “Side effects or adverse toxicity” value (P. aeruginosa) was “did not cause any side effects or adverse toxicity”.
In the case of `C[C@@H](O)[C@H]1C(=O)N2C(C(=O)O)=C(SCCN=CN)C[C@H]12` [Imipenem, imipenem], the “Cytotoxic activity, Peptide Concentration” value (“Cytotoxic activity” for short) ([1]; human) is reported as >400 µmol/L, the “Cytotoxic activity” value ([2]; mouse) is reported as >400 µmol/L and the “Cytotoxic activity” value ([3]; mouse) is reported as >400 µmol/L. The “Gross toxicity, number of mice (TL)” value (mice; Dose 50 mg Kg^−1, five mice per group) was 2 (TL-1) and the “Gross toxicity, number of mice (TL)” value (mice; [7]) was 3 (TL-2).
In the case of `CC[C@H](C)[C@H](NC(=O)[C@H](CCCCN)NC(=O)[C@H](CCCCN)NC(=O)[C@H](C)NC(=O)[C@H](CC(C)C)NC(=O)[C@H](C)NC(=O)[C@H](C)NC(=O)[C@H](CC(C)C)NC(=O)[C@H](C)NC(=O)[C@H](CCCCN)NC(=O)[C@H](CC(C)C)NC(=O)[C@H](CC(N)=O)NC(=O)[C@@H](NC(=O)[C@@H](NC(=O)[C@@H](NC(=O)[C@@H]1CCCN1C(=O)[C@H](CC(C)C)NC(=O)[C@@H](N)Cc1ccccc1)[C@@H](C)CC)[C@@H](C)CC)[C@@H](C)CC)C(=O)N[C@@H](CC(C)C)C(N)=O` [Mast-MO, FLPIIINLKALAALAKKIL], the “Hemolytic activity in human red blood cell assays” value ([1]; concentration range tested 1-400 μmoL^−1) is reported as “did not present hemolytic activity”, the “Cytotoxic activity” value ([1]; hRBCs) is reported as >400 µmol/L and the “Concentration toxic against HEK293” value [4] is reported as 25 µmol⁻¹. For the same molecule, the “Cytotoxic activity” value ([4]; HEK293) was 25 µmol/L, the “Cytotoxicity towards murine fibroblasts (L929 cells), in words” value [2] was “not cytotoxic” and the “Cytotoxic activity” value ([2]; L929) was >400 µmol/L. The “Cytotoxicity towards murine macrophages (RAW 264.7 cells), in words” value [3] was “not cytotoxic”, the “Cytotoxic activity” value ([3]; RAW 264.7 (Table 2)) was >400 µmol/L and the “Gross toxicity, number of mice (TL)” value (mice; [7]) was 2 (TL-1). The “Toxicity in preliminary mouse experiments, in words” value (mice; single dose, peritoneally) was “lacked toxicity” and the “Toxicity when injected systemically in the infection model” value [5] was “did not present toxicity”.
In the case of FLPII [FLPII motif, FLPII], the “Cytotoxic activity” value [3, 8] is reported as >200 µmol/L and the “Hemolytic activity, Peptide Concentration” value [6] is reported as >200 µmol/L.
In the case of “LL-37: human cathelicidin LL-37, used for comparison”, the “Cytotoxic activity” value ([1]; hRBCs) is reported as 87 µmol/L, the “Cytotoxic activity” value ([2]; L929) is reported as 95 µmol/L and the “Cytotoxic activity” value ([3]; RAW 264.7 (Table 2)) is reported as 100 µmol/L. For the same molecule, the “Cytotoxic activity” value [3, 8] was 100 µmol/L and the “Hemolytic activity, Peptide Concentration” value [6] was 100 µmol/L.
In the case of gentamicin, the “Cytotoxic activity” value ([1]; hRBCs) is reported as >400 µmol/L, the “Cytotoxic activity” value ([2]; L929) is reported as >400 µmol/L and the “Cytotoxic activity” value ([3]; RAW 264.7 (Table 2)) is reported as >400 µmol/L.
